# US9181235B2, “Substituted pyridines for modulating the WNT signaling pathway” (NOVARTIS AG, priority 2010, dated 2015)
# Tested on: Wnt signaling
# Test: Wnt-Luc reporter assay for pathway inhibition of Wnt signaling
# Assay type: cell-based, mouse (TM3 Wnt-Luc) or human (293 Wnt-Luc); not stated which
# Conditions: Table 2; Wnt-Luc reporter cells co-cultured with L-cell Wnt3a cells, 24 hours
# Experimental: This example provides a method that is useful for evaluating test compounds for inhibition of Wnt signaling.
# Mouse leydig cell TM3 cells (obtained from American Type Culture Collection, ATCC, Manassas, Va.) are cultured in 1:1 mixture of Ham's F12 medium and Dulbecco's modified Eagle's medium (Gibco/Invitrogen, Carlsbad, Calif.) supplemented with 2.5% FBS (Gibco/Invitrogen, Carlsbad, Calif.) and 5% horse serum (Gibco/Invitrogen, Carlsbad, Calif.), 50 unit/mL penicillin and 50 μg/mL of streptomycin (Gibco/Invitrogen, Carlsbad, Calif.) at 37° C. with 5% CO2 in air atmosphere. TM3 cells in a 10 cm dish are co-transfected with 8 μg of STF-reporter plasmid containing a luciferase gene driven by Wnt-responsive elements and 2 μg of pcDNA3.1-Neo (Gibco/Invitrogen, Carlsbad, Calif.) with 30 μL of FuGENE6 (Roche Diagnostics, Indianapolis, Ind.) following the manufacturer's protocol. Stable cell lines (TM3 Wnt-Luc) were selected with 400 μg/mL of G418 (Gibco/Invitrogen, Carlsbad, Calif.). The TM3 Wnt-Luc cells and L-cell Wnt3a cells (obtained from American Type Culture Collection, ATCC, Manassas, Va.; cultured in Dulbecco's modified Eagle's medium (Gibco/Invitrogen, Carlsbad, Calif.) supplemented with 10% FBS (Gibco/Invitrogen, Carlsbad, Calif.) and 50 unit/mL penicillin and 50 μg/mL of streptomycin (Gibco/Invitrogen, Carlsbad, Calif.) at 37° C. with 5% CO2 in air atmosphere) are trypsinized and co-cultured into a 384-well plate with DMEM medium supplemented with 2% FBS, and treated with different concentrations of a compound of the invention. After 24 hours, the firefly luciferase activities are assayed with the Bright-Glo™ Luciferase Assay System (Promega, Madison, Wis.). The IC50 is measured when the effect of the compound reduces the luminescence signal by 50%.
# This example provides another method that is useful for evaluating test compounds for inhibition of Wnt signaling.
# Human embryonic kidney 293 cells (obtained from American Type Culture Collection, ATCC, Manassas, Va.) are cultured in DMEM medium (Gibco/Invitrogen, Carlsbad, Calif.) supplemented with 10% FBS (Gibco/Invitrogen, Carlsbad, Calif.), 50 unit/mL penicillin and 50 μg/mL of streptomycin (Gibco/Invitrogen, Carlsbad, Calif.) at 37° C. with 5% CO2 in air atmosphere. 293 cells in a 10 cm dish are co-transfected with 8 μg of STF-reporter plasmid containing a luciferase gene driven by Wnt-responsive elements and 2 μg of pcDNA3.1-Neo (Gibco/Invitrogen, Carlsbad, Calif.) with 30 μL of FuGENE6 (Roche Diagnostics, Indianapolis, Ind.) following the manufacturer's protocol. Stable cell lines (293 Wnt-Luc) were selected with 400 μg/mL of G418 (Gibco/Invitrogen, Carlsbad, Calif.). The 293 Wnt-Luc cells and L-cell Wnt3a cells (obtained from American Type Culture Collection, ATCC, Manassas, Va.) are trypsinized and co-cultured into a 384-well plate with DMEM medium supplemented with 2% FBS, and treated with different concentrations of a compound of the invention. After 24 hours, the firefly luciferase activities are assayed with the Bright-Glo™ Luciferase Assay System (Promega, Madison, Wis.). The IC50 is measured when the effect of the compound reduces the luminescence signal by 50%.
row,IC50 [nM],SMILES
1,1100,Cc1cc(C(=O)NCc2cnc(-c3ccnc(C(F)(F)F)c3)c(C)c2)ncc1-c1cccc(F)c1C [compound 99]
2,> 1800,Cc1cc(-c2ncc(CNC(=O)c3cc(C)c(-c4cccc(F)c4)cn3)cc2C)ccn1 [compound 97]
3,> 1200,Cc1cc(C(=O)NCc2cnc(-c3ccnc(C(F)(F)F)c3)c(C)c2)ncc1-c1cccnc1C [compound 98]

# Same assay, conditions: Wnt-Luc reporter cells co-cultured with L-cell Wnt3a cells, 24 hours, luciferase signal reduced by 50%
row,SMILES,IC50 [nM]
1,"COC(=O)N1CCN(c2ccc(C(=O)NCc3cnc(-c4ccnc(C(F)(F)F)c4)c(F)c3)cn2)CC1 [compound 14, methyl 4-{5-[({5-fluoro-6-[2-(trifluoromethyl)pyridin-4-yl]pyridin-3-yl}methyl)carbamoyl]pyridin-2-yl}piperazine-1-carboxylate]",0.44
2,"Cc1cc(C(=O)NCc2cnc(-c3ccnc(C(F)(F)F)c3)c(C)c2)ncc1-c1cnccn1 [compound 79, 4-methyl-N-({5-methyl-6-[2-(trifluoromethyl)pyridin-4-yl]pyridin-3-yl}methyl)-5-(pyrazin-2-yl)pyridine-2-carboxamide]",982
3,"Cc1cc(C(=O)NCc2cnc(-c3ccnc(C(F)(F)F)c3)c(C)c2)ncc1-c1cc(F)ccc1C [compound 82, 5-(5-fluoro-2-methylphenyl)-4-methyl-N-({5-methyl-6-[2-(trifluoromethyl)pyridin-4-yl]pyridin-3-yl}methyl)pyridine-2-carboxamide]",441
4,"Cc1cc(-c2ccc(CNC(=O)c3ccc(-c4cccc(F)c4)cc3)cc2)ccn1 [compound 12, 4-(3-fluorophenyl)-N-{[4-(2-methylpyridin-4-yl)phenyl]methyl}benzamide]",0.06
5,"O=C(NCc1ccc(N2CCS(=O)(=O)CC2)nc1)c1ccc(-c2cnccn2)nc1 [compound 69, N-((6-(1,1-dioxidothiomorpholino)pyridin-3-yl)methyl)-6-(pyrazin-2-yl)nicotinamide]",88
6,"CC(=O)N1CCN(c2ccc(C(=O)NCc3cnc(-c4ccnc(C(F)(F)F)c4)c(F)c3)cn2)CC1 [compound 46, 6-(4-Acetylpiperazin-1-yl)-N-((3-fluoro-2′-(trifluoromethyl)-[2,4′-bipyridin]-5-yl)methyl)nicotinamide]",4.2
7,"Cc1cc(C(=O)NCc2cnc(-c3ccnc(C(F)(F)F)c3)c(C)c2)ccc1-c1ncccc1C [compound 70, 3-methyl-N-({5-methyl-6-[2-(trifluoromethyl)pyridin-4-yl]pyridin-3-yl}methyl)-4-(3-methylpyridin-2-yl)benzamide]",27
8,"O=C(NCc1ccc(-c2ccnnc2)cc1)c1ccc(-c2ccccc2)cc1 [compound 1, N-(4-(pyridazin-4-yl)benzyl)biphenyl-4-carboxamide]",1.9
9,"O=C(NCc1ccc(-c2ccnnc2)cc1)c1ccc(-c2cccc(F)c2)cc1 [compound 2, 4-(3-fluorophenyl)-N-{[4-(pyridazin-4-yl)phenyl]methyl}benzamide]",0.95
10,"Cc1cc(-c2cnc(CNC(=O)c3ccc(-c4cnccn4)cn3)cc2C)ccn1 [compound 86, N-{[4-methyl-5-(2-methylpyridin-4-yl)pyridin-2-yl]methyl}-5-(pyrazin-2-yl)pyridine-2-carboxamide]",17

# The remaining lines, values ahead:
row,IC50 [nM],SMILES
1,42,"O=C(NCc1ccc(-c2ccnc(F)c2)nc1)c1ccc(-c2ccnnc2)cn1 [compound 37, N-{[6-(2-fluoropyridin-4-yl)pyridin-3-yl]methyl}-5-(pyridazin-4-yl)pyridine-2-carboxamide]"
2,8.5,"CC(=O)N1CCN(c2ccc(C(=O)NCc3ccc(-c4ccnc(C)c4)c(F)c3)nc2)CC1 [compound 22, 5-(4-acetylpiperazin-1-yl)-N-{[3-fluoro-4-(2-methylpyridin-4-yl)phenyl]methyl}pyridine-2-carboxamide]"
3,0.56,"CN(C)c1ccc(-c2ccc(C(=O)NCc3ccc(-c4ccnc(F)c4)nc3)nc2)cn1 [compound 38, 6′-(Dimethylamino)-N-((2′-fluoro-2,4′-bipyridin-5-yl)methyl)-3,3′-bipyridine-6-carboxamide]"
4,0.17,"Cc1cc(CNC(=O)c2ccc(-c3cccc(F)c3)cn2)cnc1-c1ccnc(F)c1 [compound 30, N-((2′-fluoro-3-methyl-2,4′-bipyridin-5-yl)methyl)-5-(3-fluorophenyl)picolinamide]"
5,465,"O=C(NCc1ccc(-c2ccnc(F)c2)nc1)c1ccc(-n2ccccc2=O)cn1 [compound 44, N-((2′-fluoro-[2,4′-bipyridin]-5-yl)methyl)-2-oxo-2H-[1,3′-bipyridine]-6′-carboxamide]"
6,2.5,"Cc1cc(-c2ncc(CNC(=O)c3ccc(-c4cnccn4)cn3)cc2C)ccn1 [compound 63, N-((2′,3-dimethyl-2,4′-bipyridin-5-yl)methyl)-5-(pyrazin-2-yl)picolinamide]"
7,45,"Cc1cc(CNC(=O)c2ccc(-c3cnccn3)cn2)cnc1-c1cc[nH]c(=O)c1 [compound 66, N-((5-Methyl-6-(2-oxo-1,2-dihydropyridin-4-yl)pyridin-3-yl)methyl)-5-(pyrazin-2-yl)picolinamide]"
8,11,"Cc1c(F)cccc1-c1ccc(C(=O)NCc2ccc(-c3ccnc(C(F)(F)F)c3)nc2)nc1 [compound 64, 5-(3-fluoro-2-methylphenyl)-N-({6-[2-(trifluoromethyl)pyridin-4-yl]pyridin-3-yl}methyl)pyridine-2-carboxamide]"
9,2.5,"O=C(NCc1cnc(-c2ccnnc2)c(F)c1)c1ccc(-c2cnccn2)cn1 [compound 71, N-{[5-fluoro-6-(pyridazin-4-yl)pyridin-3-yl]methyl}-5-(pyrazin-2-yl)pyridine-2-carboxamide]"
10,0.35,"Cc1cc(CNC(=O)c2ccc(-c3cccc(F)c3)cn2)cnc1-c1ccnc(C(F)(F)F)c1 [compound 57, 5-(3-fluorophenyl)-N-({5-methyl-6-[2-(trifluoromethyl)pyridin-4-yl]pyridin-3-yl}methyl)pyridine-2-carboxamide]"
11,0.8,"Cc1cc(CNC(=O)c2ccc(-c3cnccn3)cn2)cnc1-c1ccnc(C(F)(F)F)c1 [compound 55, N-((3-Methyl-2′-(trifluoromethyl)-2,4′-bipyridin-5-yl)methyl)-5-(pyrazin-2-yl)picolinamide]"
12,6.4,"Cn1cc(-c2ccc(CNC(=O)c3ccc(-c4cnccn4)cc3)cc2F)ccc1=O [compound 21, N-(3-fluoro-4-(1-methyl-6-oxo-1,6-dihydropyridin-3-yl)benzyl)-4-(pyrazin-2-yl)benzamide]"
13,1.4,"CN(C)c1ccc(-c2ccc(C(=O)NCc3ccc(-c4ccnc(F)c4)nc3)cn2)cn1 [compound 25, 6-[6-(dimethylamino)pyridin-3-yl]-N-{[6-(2-fluoropyridin-4-yl)pyridin-3-yl]methyl}pyridine-3-carboxamide]"
14,3.5,"Cc1cc(-c2ccc(CNC(=O)c3ccc(-c4ccccc4C)cc3)cn2)ccn1 [compound 45, 4-(2-methylphenyl)-N-{[6-(2-methylpyridin-4-yl)pyridin-3-yl]methyl}benzamide]"
15,0.36,"O=C(NCc1ccc(-c2ccnc(C(F)(F)F)c2)nc1)c1ccc(-c2cnccn2)cn1 [compound 41, 5-(Pyrazin-2-yl)-N-((2′-(trifluoromethyl)-2,4′-bipyridin-5-yl)methyl)picolinamide]"
16,718,"CS(=O)(=O)c1cccc(-c2ccc(C(=O)NCc3ccc(-c4ccnc(F)c4)nc3)nc2)c1 [compound 43, N-((2′-Fluoro-2,4′-bipyridin-5-yl)methyl)-5-(3-(methylsulfonyl)phenyl)picolinamide]"
17,0.2,"Cc1cc(-c2ccc(CNC(=O)c3ccc(-c4cccc(F)c4)nc3)cn2)ccn1 [compound 27, 6-(3-fluorophenyl)-N-{[6-(2-methylpyridin-4-yl)pyridin-3-yl]methyl}pyridine-3-carboxamide]"
